The results in this text go back to article PMC5887547, “An allosteric inhibitor of Mycobacterium tuberculosis ArgJ: Implications to a novel combinatorial therapy” (EMBO Molecular Medicine, 2018).

In data set [1] the target is T1, Ornithine acetyltransferase (MtArgJ) (Mycobacterium tuberculosis, UniProt P9WPZ3).
T1 construct: gene argJ
Description: […]; marginal decrease of enzyme activity (TLC assay). It is filed as binding.

In data set [2] the target is T1, Ornithine acetyltransferase (MtArgJ). Description: thermal shift assay (apparent Kd); also ANS displacement ([…]) and enzyme inhibition by TLC assay (Dixon Ki […]). The class given is binding.
Data set [3] has as its system CC(=O)N[C@@H](CCCN)C(=O)O. Briefly: purified protein. The settings on record: active (substrate-binding) site.

T1 sequence (P9WPZ3 1-199): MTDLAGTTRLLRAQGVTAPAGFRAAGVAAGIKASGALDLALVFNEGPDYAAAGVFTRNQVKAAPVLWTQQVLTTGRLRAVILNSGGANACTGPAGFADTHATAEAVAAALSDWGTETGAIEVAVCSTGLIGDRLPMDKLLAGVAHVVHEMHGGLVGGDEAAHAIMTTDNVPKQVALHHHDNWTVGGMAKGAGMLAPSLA
T1 sequence (P9WPZ3 200-404): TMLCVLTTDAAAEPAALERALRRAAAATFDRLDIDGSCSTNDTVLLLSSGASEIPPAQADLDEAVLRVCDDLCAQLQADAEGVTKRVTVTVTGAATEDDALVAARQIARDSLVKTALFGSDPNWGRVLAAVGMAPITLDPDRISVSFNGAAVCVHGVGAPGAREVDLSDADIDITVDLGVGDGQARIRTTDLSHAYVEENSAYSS

As for `O=S(=O)(O)c1cccc2cccc(Nc3ccccc3)c12` [ANS, 8‐anilinonaphthalene‐1‐sulfonic acid], in data set [1], the Kd was 937 µM. Turning to `O=C(Nc1cccc2c(=O)cc(-c3nnn[nH]3)oc12)c1ccc(OCCCCc2ccccc2)cc1` [PRK, Pranlukast], in data set [2], the Kd came to 126 µM. For “Ornithine acetyltransferase (MtArgJ) (Mycobacterium tuberculosis H37Rv)”, the Km in data set [3] was found to be 91.8 µM.

As a reminder, the Km is the substrate concentration at which the rate is half of its maximum.
